Results from patent US10597414B2, “Crystalline polymorphic form of 3-hydroxy-4,5-bis-benzyloxy-6-benzyloxymethyl-2-phenyl-2-OXO-2λ5-[1,2]oxaphosphinane” (PHOST'IN, priority 2016, dated 2020).

How the values were obtained:
[1] = Compression test followed by X-ray diffraction; assay type: physicochemical; settings: pressure of 10 tons for 5 min, 13 mm die
Method: Compression Test The sample was introduced into a die with 13 mm diameter (m=103.83 mg). The sample was then compressed with a hydraulic press at a pressure of 10 tons for 5 minutes, and immediately analyzed by X-ray diffraction.

[2] = Dynamic vapor sorption (DVS) analysis; assay type: physicochemical
Method: Dynamic Vapor Sorption (DVS)
The analyses were performed on a Surface Measurements System DVS Intrinsic. The samples (few milligrams of product obtained by carrying out the above scheme 5) were placed in an open aluminum pan. Analyses were performed at 25° C.
Relative humidity was scanned between 0% RH and 95% RH with 10% RH steps (40-0-95-0-95; unless stated otherwise). The stability criterion was a variation in mass lower than 0.002% on a 5 min. window (with a minimum step time of 10 min and a maximum of 100 min).

[3] = Stability of polymorphic forms (maturation at room temperature, cross-seeding tests); assay type: physicochemical; settings: 25° C., several days of maturation
Method: Other polymorphic forms could be obtained by recrystallizing out from specific organic solvents starting from the crystalline form of the invention. However, said other polymorphic forms are not stable after several days of maturation at room temperature (more specifically at 25° C.).

[4] = Thermogravimetric analysis (TGA); assay type: physicochemical; settings: about 25° C. to 250° C., before and after melting
Method: The analyses were performed on a Perkin Elmer Pyris 1 TGA. The samples (few milligrams of product obtained by carrying out the above scheme 5) were placed in an aluminum pan and the cover was crimped. Analyses were performed under nitrogen purge (20 mL/min) and the cover was punctured at the beginning of the analysis.
Temperature scans were carried out between 25° C. and 300° C. at a speed of 10°/min (unless stated otherwise).

glioblastoma = settings: prior art, J. Med. Chem. 2012, 55, 2196-2211; cited from earlier work

| Structure (SMILES) | Solid state stability after compression (diffraction pattern vs starting material) [1] | Hygroscopicity ([2]; DVS, 0% RH to 95% RH, 25° C.) | DVS weight loss ([2]; drying steps, 25° C., relative humidity 0% RH to 95% RH) | XRPD pattern after DVS analysis compared with before ([2]; sample kept at 95% RH on the final step) | DVS weight gain with respect to the initial weight ([2]; steps at higher relative humidity conditions, 25° C.) | Relative stability of polymorphic form [3] | Weight loss by TGA [4] | Relative potency among the four diastereoisomers (glioblastoma) |
| --- | --- | --- | --- | --- | --- | --- | --- | --- |
| O=P1(c2ccccc2)OC(COCc2ccccc2)C(OCc2ccccc2)C(OCc2ccccc2)C1O (centres unmarked) [crystalline form of compound I, 3-Hydroxy-4,5-bis-benzyloxy-6-benzyloxymethyl-2-phenyl-2-oxo-2λ5-[1,2]oxaphosphinane] | same peaks | non-hygroscopic | lower than 0.1% | same profile | 0.1% | most stable form | no significant weight loss |  |
| O=[P@@]1(c2ccccc2)O[C@H](COCc2ccccc2)[C@@H](OCc2ccccc2)[C@H](OCc2ccccc2)[C@H]1O [PST3.1a] |  |  |  |  |  |  |  | most potent diastereoisomer |
